Target: Metabotropic glutamate receptor 5 (Rattus norvegicus) (UniProt P31424)
Assay: PubChem AID 588710
Conditions: HEK293 rat mGluR5 membranes, [3H]methoxyPEPy displacement

Sequence of Metabotropic glutamate receptor 5 (Rattus norvegicus) (P31424 whole entry, looked up): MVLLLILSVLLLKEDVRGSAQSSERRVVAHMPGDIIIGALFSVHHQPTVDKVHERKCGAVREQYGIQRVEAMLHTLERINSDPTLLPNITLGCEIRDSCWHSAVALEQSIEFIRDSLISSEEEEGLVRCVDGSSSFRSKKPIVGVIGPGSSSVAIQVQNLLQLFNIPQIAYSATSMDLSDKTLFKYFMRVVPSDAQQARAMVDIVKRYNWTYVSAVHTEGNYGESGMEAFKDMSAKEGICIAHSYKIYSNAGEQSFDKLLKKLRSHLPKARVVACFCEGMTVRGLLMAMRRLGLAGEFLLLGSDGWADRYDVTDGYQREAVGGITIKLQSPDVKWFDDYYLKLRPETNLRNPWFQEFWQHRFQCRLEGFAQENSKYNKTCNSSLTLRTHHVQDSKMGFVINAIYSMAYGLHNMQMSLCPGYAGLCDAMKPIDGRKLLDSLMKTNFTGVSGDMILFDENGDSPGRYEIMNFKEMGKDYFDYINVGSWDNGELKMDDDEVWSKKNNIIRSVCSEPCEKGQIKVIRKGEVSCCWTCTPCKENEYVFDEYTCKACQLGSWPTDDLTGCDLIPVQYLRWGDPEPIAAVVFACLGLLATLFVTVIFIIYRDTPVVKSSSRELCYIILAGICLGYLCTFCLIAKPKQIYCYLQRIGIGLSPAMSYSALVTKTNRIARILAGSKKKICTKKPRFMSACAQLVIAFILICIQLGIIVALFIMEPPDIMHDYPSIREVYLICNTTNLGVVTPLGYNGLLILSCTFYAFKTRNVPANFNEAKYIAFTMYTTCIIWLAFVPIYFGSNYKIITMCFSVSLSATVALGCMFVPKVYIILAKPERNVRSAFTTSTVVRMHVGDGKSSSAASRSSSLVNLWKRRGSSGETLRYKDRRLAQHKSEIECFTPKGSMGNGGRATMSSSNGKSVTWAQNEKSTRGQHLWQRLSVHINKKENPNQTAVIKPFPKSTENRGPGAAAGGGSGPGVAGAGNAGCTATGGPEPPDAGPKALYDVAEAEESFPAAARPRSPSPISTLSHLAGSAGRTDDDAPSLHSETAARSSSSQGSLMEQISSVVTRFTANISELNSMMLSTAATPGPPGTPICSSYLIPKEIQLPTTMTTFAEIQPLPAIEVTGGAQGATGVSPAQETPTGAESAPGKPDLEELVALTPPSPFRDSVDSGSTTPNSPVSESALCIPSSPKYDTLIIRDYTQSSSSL

IC50: 4.84 nM
SMILES: C[C@@H](NC(=O)c1ccc(C#Cc2cccc(F)c2)cn1)C(C)(C)O

— PubChem BioAssay AID588710 (Vanderbilt Specialized Chemistry Center, 2011)
